Source: ChEMBL document CHEMBL5316320, “Discovery of Novel Indazole Chemotypes as Isoform-Selective JNK3 Inhibitors for the Treatment of Parkinson's Disease” (J Med Chem, 2023)

Experiments:
[1] = biological target: T1, Mitogen-activated protein kinase 8 (Homo sapiens, UniProt P45983)
[2] = biological target: Mitogen-activated protein kinase 10 (Homo sapiens, UniProt P53779)
[3] = biological target: Mitogen-activated protein kinase 9 (Homo sapiens, UniProt P45984); assay: Inhibition of JNK2 (unknown origin) by kinase profiling assay
[4] = biological target: T1, Mitogen-activated protein kinase 8; assay: Inhibition of JNK1 (unknown origin) by kinase profiling assay
[5] = biological target: Cyclin-dependent kinase-like 3 (Homo sapiens, UniProt Q8IVW4); assay: Inhibition of CDKL3 (unknown origin) by kinase profiling assay
[6] = biological target: T2, Serine/threonine-protein kinase D3 (Homo sapiens, UniProt O94806); assay: Inhibition of PKD3 (unknown origin) by kinase profiling assay
T2 sequence (O94806 whole entry): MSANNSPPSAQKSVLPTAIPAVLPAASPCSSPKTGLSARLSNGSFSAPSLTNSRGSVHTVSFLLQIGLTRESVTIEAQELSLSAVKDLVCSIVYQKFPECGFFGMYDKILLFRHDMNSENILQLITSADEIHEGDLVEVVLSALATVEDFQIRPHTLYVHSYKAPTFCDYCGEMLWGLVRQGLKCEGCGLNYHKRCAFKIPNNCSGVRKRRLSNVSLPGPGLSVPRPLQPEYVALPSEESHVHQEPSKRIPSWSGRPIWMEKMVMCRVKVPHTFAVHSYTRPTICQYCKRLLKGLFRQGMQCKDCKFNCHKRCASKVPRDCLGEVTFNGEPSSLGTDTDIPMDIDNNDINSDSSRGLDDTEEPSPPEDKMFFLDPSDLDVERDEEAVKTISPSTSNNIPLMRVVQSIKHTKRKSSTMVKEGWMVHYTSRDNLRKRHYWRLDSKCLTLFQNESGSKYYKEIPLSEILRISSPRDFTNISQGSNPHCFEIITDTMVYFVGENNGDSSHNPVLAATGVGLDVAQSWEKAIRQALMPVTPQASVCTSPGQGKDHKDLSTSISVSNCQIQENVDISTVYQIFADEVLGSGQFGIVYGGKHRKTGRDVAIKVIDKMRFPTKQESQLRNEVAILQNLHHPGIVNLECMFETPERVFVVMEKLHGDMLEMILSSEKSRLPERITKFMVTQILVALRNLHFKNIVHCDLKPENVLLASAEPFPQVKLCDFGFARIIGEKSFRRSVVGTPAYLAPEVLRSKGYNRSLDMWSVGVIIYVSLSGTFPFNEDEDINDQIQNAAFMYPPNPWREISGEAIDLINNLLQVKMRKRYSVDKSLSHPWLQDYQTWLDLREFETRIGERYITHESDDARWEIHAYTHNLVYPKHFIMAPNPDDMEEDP

[7] = biological target: Vascular endothelial growth factor receptor 3 (Homo sapiens, UniProt P35916); assay: Inhibition of FLT4 (unknown origin) by kinase profiling assay
[8] = biological target: TRAF2 and NCK-interacting protein kinase (Homo sapiens, UniProt Q9UKE5); assay: Inhibition of TNIK (unknown origin) by kinase profiling assay
[9] = biological target: T3, Dual specificity mitogen-activated protein kinase kinase 4 (Homo sapiens, UniProt P45985); assay: Inhibition of MKK4 (unknown origin) by kinase profiling assay
T3 sequence (P45985 whole entry): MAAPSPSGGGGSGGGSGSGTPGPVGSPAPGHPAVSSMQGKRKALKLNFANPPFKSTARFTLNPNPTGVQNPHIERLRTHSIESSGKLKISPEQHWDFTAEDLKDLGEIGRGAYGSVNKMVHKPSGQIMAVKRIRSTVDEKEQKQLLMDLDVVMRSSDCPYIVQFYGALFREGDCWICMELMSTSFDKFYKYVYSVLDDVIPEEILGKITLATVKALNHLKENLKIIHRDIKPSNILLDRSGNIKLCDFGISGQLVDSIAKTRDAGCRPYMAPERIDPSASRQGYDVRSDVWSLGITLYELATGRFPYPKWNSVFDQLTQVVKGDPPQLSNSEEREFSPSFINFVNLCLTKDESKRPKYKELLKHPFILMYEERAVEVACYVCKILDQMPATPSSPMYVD

[10] = biological target: T4, Dual specificity mitogen-activated protein kinase kinase 7 (Homo sapiens, UniProt O14733); assay: Inhibition of MKK7 (unknown origin) by kinase profiling assay
T4 sequence (O14733 whole entry): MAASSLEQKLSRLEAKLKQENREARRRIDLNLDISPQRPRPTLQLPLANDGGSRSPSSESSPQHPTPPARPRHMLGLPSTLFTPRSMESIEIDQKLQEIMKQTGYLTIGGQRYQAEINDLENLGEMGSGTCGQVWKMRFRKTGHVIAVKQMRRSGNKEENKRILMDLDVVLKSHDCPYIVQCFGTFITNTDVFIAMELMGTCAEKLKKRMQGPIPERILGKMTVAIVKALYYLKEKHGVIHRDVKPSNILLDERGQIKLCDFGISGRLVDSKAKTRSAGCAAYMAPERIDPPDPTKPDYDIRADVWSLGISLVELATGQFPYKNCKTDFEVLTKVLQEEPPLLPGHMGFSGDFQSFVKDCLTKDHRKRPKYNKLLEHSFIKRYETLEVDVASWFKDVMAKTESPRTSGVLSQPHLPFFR

[11] = biological target: Voltage-gated inwardly rectifying potassium channel KCNH2 (Homo sapiens, UniProt Q12809)
Chain of Voltage-gated inwardly rectifying potassium channel KCNH2 (Q12809 whole entry): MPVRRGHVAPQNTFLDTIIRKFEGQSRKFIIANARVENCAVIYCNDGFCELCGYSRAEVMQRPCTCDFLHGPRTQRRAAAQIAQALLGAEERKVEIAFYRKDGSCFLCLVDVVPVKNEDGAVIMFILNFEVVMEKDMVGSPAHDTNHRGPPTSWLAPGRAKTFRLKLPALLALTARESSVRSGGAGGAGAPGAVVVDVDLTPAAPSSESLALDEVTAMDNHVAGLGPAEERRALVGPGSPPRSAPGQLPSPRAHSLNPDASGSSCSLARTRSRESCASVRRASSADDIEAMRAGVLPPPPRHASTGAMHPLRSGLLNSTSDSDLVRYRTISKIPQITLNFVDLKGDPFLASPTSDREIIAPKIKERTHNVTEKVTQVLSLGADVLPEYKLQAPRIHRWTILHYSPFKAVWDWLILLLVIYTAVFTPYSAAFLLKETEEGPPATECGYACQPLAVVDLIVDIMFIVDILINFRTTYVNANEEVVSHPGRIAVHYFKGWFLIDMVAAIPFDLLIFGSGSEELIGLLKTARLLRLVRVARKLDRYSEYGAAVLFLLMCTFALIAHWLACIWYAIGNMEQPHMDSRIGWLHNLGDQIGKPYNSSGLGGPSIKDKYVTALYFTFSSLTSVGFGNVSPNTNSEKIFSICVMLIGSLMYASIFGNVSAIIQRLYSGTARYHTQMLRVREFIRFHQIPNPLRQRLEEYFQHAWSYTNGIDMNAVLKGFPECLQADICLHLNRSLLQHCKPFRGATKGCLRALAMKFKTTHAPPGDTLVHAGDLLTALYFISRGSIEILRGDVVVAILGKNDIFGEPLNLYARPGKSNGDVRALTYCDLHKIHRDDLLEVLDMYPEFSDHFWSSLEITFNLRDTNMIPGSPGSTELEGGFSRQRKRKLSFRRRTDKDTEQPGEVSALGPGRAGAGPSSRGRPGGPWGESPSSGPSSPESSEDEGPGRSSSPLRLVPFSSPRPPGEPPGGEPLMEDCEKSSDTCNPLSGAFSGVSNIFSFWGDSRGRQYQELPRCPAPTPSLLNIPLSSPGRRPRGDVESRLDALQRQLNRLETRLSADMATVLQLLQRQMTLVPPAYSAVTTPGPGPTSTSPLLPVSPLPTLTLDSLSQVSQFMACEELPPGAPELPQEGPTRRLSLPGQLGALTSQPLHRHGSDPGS

Chain of Mitogen-activated protein kinase 10 (P53779 whole entry): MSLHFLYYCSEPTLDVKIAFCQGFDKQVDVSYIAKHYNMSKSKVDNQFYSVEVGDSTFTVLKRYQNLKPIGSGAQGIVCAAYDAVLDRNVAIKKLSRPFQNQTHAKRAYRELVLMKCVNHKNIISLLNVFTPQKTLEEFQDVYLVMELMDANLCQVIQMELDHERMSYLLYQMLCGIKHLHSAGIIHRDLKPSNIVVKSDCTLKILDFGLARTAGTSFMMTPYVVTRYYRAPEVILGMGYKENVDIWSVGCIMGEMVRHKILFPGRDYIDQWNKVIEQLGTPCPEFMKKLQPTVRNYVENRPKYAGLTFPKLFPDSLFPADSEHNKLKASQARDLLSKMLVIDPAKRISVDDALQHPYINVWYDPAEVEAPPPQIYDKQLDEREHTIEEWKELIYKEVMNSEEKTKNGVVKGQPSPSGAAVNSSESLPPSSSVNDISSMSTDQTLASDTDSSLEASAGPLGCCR
T1 sequence (P45983 whole entry): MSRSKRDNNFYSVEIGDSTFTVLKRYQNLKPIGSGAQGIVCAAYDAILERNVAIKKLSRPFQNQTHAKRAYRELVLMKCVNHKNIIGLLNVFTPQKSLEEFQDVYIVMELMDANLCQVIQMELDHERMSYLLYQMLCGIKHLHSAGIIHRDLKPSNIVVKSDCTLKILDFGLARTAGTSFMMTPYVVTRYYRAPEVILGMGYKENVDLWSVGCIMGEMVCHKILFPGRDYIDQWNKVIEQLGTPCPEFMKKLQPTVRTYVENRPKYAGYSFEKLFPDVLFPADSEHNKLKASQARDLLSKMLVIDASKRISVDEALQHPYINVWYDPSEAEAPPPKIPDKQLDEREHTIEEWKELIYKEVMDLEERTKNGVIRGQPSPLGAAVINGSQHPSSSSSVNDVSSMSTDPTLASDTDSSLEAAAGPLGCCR
Chain of Mitogen-activated protein kinase 9 (P45984 whole entry): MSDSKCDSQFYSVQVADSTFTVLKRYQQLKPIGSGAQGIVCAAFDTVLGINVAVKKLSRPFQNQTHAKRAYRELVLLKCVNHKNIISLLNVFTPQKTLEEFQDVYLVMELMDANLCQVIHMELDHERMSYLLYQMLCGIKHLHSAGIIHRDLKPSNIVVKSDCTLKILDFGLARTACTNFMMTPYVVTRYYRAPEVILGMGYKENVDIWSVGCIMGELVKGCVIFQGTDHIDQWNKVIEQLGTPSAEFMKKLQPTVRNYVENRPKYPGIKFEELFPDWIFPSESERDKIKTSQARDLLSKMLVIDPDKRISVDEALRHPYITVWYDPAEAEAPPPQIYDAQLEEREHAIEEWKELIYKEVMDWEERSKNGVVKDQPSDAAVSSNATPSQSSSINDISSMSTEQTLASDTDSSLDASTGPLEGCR
Chain of Cyclin-dependent kinase-like 3 (Q8IVW4 whole entry): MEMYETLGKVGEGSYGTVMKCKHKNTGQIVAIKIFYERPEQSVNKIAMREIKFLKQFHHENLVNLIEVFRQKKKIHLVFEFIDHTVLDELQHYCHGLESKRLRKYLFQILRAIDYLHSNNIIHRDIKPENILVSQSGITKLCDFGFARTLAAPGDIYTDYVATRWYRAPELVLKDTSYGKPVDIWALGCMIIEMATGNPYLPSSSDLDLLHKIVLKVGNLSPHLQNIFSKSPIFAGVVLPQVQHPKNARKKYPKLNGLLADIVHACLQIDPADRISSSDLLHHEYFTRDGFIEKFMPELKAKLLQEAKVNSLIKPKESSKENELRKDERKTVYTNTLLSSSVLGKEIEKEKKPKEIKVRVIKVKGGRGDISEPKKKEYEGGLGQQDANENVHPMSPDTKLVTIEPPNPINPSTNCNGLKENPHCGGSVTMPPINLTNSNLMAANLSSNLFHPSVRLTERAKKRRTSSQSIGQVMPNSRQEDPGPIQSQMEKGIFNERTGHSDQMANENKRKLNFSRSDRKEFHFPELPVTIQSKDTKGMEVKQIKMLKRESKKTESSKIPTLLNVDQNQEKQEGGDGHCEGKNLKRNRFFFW
Chain of Vascular endothelial growth factor receptor 3 (P35916 whole entry): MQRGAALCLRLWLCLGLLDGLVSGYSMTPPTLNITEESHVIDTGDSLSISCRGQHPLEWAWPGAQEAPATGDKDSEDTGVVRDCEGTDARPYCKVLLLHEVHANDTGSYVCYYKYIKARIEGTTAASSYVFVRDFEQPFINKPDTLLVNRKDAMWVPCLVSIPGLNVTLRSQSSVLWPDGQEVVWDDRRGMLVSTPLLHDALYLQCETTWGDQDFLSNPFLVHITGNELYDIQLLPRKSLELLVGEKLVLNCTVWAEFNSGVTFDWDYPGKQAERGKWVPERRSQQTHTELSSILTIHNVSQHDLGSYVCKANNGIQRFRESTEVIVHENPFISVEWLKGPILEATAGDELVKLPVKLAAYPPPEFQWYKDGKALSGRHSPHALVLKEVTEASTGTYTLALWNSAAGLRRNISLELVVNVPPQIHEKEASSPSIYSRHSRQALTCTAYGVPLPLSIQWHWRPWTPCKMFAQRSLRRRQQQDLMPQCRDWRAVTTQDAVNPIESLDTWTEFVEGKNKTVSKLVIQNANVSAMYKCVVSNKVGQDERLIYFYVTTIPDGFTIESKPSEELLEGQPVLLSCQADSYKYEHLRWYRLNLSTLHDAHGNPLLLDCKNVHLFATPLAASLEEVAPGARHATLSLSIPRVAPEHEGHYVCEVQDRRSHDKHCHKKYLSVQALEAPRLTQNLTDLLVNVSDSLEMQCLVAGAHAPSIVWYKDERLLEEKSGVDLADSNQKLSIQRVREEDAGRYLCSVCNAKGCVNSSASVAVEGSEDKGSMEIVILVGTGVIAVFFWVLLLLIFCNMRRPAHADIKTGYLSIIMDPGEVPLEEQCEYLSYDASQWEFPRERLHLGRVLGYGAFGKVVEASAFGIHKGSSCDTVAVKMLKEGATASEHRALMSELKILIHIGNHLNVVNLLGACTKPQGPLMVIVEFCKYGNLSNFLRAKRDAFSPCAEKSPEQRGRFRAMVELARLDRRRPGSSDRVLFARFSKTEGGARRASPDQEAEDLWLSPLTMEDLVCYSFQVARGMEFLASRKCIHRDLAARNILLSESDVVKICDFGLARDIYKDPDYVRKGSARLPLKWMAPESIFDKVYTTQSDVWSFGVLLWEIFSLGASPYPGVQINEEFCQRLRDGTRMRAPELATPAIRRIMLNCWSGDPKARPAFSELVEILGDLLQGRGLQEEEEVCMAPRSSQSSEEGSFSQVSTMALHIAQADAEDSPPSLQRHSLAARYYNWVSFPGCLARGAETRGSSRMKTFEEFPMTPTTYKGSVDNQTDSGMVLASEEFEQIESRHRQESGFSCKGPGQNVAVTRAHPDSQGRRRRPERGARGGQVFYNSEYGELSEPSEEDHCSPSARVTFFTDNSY

Row | Structure (SMILES) | IC50 [1] [µM] | IC50 [2] [µM] | other results
1 | O=C(c1ccc(Cl)cc1)N1CCN(C(=O)c2ccc(CNc3n[nH]c4ccccc34)cc2)CC1 | 8.82 | 0.305 | –
2 | O=C(c1ccc(CNc2n[nH]c3ccccc23)cc1)N1CCN(C(=O)c2cc(Cl)ccc2Cl)CC1 | 7.61 | 0.205 | –
3 | O=C1c2ccccc2C2=NNC3=CC=CC1C32 (stereo unspecified) | 0.0423 | – | –
4 | O=C(c1ccc(CNc2n[nH]c3ccccc23)cc1)N1CCN(C(=O)c2cccc(C(F)(F)F)c2)CC1 | 7.8 | 0.927 | –
5 | O=C(Nc1ccccc1Cl)N1CCN(C(=O)c2ccc(CNc3n[nH]c4ccccc34)cc2)CC1 | 7.79 | 0.619 | –
6 | O=C(c1cccc(CNc2n[nH]c3ccccc23)c1)N1CCN(C(=O)c2ccc(Cl)cc2Cl)CC1 | 7.59 | 4.03 | –
7 | Cc1cccc2c(NCc3cccc(C(=O)N4CCN(C(=O)c5ccc(Cl)cc5Cl)CC4)c3)n[nH]c12 | > 10 | > 10 | –
8 | O=C(c1ccc(CNc2n[nH]c3ccccc23)cc1)N1CCN(C(=O)c2ccccc2I)CC1 | 7.69 | 0.399 | –
9 | O=C(c1ccc(CNc2n[nH]c3ccccc23)cc1)N1CCN(C(=O)c2ccc(OC(F)(F)F)cc2)CC1 | 7.68 | 0.325 | –
10 | Cc1cc(NC(=O)c2ccc(CNc3n[nH]c4ccccc34)cc2)ccc1Cl | > 10 | > 10 | –
11 | O=C(c1ccc(CNc2n[nH]c3ccccc23)cc1)N1CCN(C(=O)c2ccccc2OC(F)(F)F)CC1 | 8.28 | 0.394 | –
12 | O=C(c1ccc(CNc2n[nH]c3ccccc23)cc1)N1CCN(C(=O)c2c(Cl)cccc2C(F)(F)F)CC1 | 7.66 | 0.253 | –
13 | O=C(c1cccc(CNc2n[nH]c3ccccc23)c1)N1CCN(C(=O)c2cc(C(F)(F)F)ccc2F)CC1 | – | 4.46 | –
14 | O=C(c1cccc(CNc2n[nH]c3c(Cl)cc([N+](=O)[O-])cc23)c1)N1CCN(C(=O)c2ccc(Cl)cc2Cl)CC1 | > 10 | > 10 | –
15 | O=C(c1ccc(CNc2n[nH]c3ccccc23)cc1)N1CCN(C(=O)c2cc(C(F)(F)F)ccc2Cl)CC1 | 9.87 | 0.282 | –
16 | O=C(c1cccc(CNc2n[nH]c3cccc(F)c23)c1)N1CCN(C(=O)c2ccc(Cl)cc2Cl)CC1 | 8 | 0.189 | –
17 | O=C(Nc1cc(C(F)(F)F)cc(C(F)(F)F)c1)N1CCN(C(=O)c2ccc(CNc3n[nH]c4ccccc34)cc2)CC1 | > 10 | 8.03 | –
18 | COc1ccc(NC(=O)c2ccc(CNc3n[nH]c4ccccc34)cc2)cc1 | > 10 | > 10 | –

Row | Structure (SMILES) | IC50 [1] [µM] | IC50 [2] [µM] | other results
19 | O=C(NN1CCCCC1)c1ccc(CNc2n[nH]c3ccccc23)cc1 | 9.06 | – | –
20 | O=C(NCCc1ccccc1)c1ccc(CNc2n[nH]c3ccccc23)cc1 | > 10 | > 10 | –
21 | Cc1ccc(Cl)c(C(=O)N2CCN(C(=O)c3ccc(CNc4n[nH]c5ccccc45)cc3)CC2)c1 | > 10 | 0.588 | –
22 | O=C(c1cccc(CNc2n[nH]c3cccc(Cl)c23)c1)N1CCN(C(=O)c2ccc(Cl)cc2Cl)CC1 | > 10 | – | IC50 [3]: 9.27 µM; IC50 [4]: > 10 µM; IC50 [5]: 0.669 µM; IC50 [6]: 0.624 µM; IC50 [7]: 0.423 µM; IC50 [8]: 0.367 µM; IC50 [9]: > 10 µM; IC50 [10]: > 10 µM; IC50 [11]: > 30 µM
23 | O=C(Nc1ccc(Cl)cc1)c1ccc(CNc2n[nH]c3ccccc23)cc1 | > 10 | > 10 | –
24 | O=C(Nc1ccccc1)c1ccc(CNc2n[nH]c3ccccc23)cc1 | > 10 | > 10 | –
25 | O=C(c1ccc(CNc2n[nH]c3ccccc23)cc1)N1CCCC1 | 8.07 | 7.51 | –
26 | Cn1nc(NCc2cccc(C(=O)N3CCN(C(=O)c4ccc(Cl)cc4Cl)CC3)c2)c2ccccc21 | > 10 | > 10 | –
27 | O=C(c1ccc(CNc2n[nH]c3ccccc23)cc1)N1CCN(C(=O)c2ccc(F)cc2Cl)CC1 | 9.07 | 0.647 | –
28 | O=C(c1ccc(CNc2n[nH]c3ccccc23)cc1)N1CCN(C(=O)c2ccc(Br)cc2Br)CC1 | 8.85 | 0.248 | –
29 | O=C(c1ccc(CNc2n[nH]c3ccccc23)cc1)N1CCN(C(=O)c2cccc(F)c2Cl)CC1 | 8.91 | 0.384 | –
30 | O=C(c1cccc(CNc2n[nH]c3ccccc23)c1)N1CCN(C(=O)c2c(F)cccc2Cl)CC1 | 7.82 | 4.3 | –
31 | O=C(c1ccc(CNc2n[nH]c3ccccc23)cc1)N1CCN(C(=O)c2c(Cl)cccc2Cl)CC1 | – | 0.279 | –
32 | O=C(c1cccc(CNc2n[nH]c3cc(Cl)ccc23)c1)N1CCN(C(=O)c2ccc(Cl)cc2Cl)CC1 | – | 0.239 | –
33 | COc1ccc(C(=O)N2CCN(C(=O)c3ccc(CNc4n[nH]c5ccccc45)cc3)CC2)c(Cl)c1 | > 10 | – | –
34 | Cc1cccc(Cl)c1C(=O)N1CCN(C(=O)c2ccc(CNc3n[nH]c4ccccc34)cc2)CC1 | > 10 | – | –
35 | COc1ccc(C(=O)N2CCN(C(=O)c3ccc(CNc4n[nH]c5ccccc45)cc3)CC2)cc1 | 7.7 | 0.615 | –
